For orientation: inhibition means the drop in the measured response relative to a control, in per cent.

Some results are limits rather than exact numbers.

For assay [1], the system named is A2780 ovarian cells. Briefly: A2780 ovarian cell proliferation assay in lipid reduced medium, without palmitate (MTT). It is filed as cell-based. The settings on record: Homo sapiens, A2780, 96 h; read-out: pIC50 A2780 Ovarian Cell, Without Palmitate (converted).
The target of assay [2] is T1, hFASN enzyme (full length) (Homo sapiens, UniProt P49327).
T1 construct: 10 μL hFASN enzyme (full length, 300 ng, purified in house); made in house
T1 sequence (P49327 whole entry): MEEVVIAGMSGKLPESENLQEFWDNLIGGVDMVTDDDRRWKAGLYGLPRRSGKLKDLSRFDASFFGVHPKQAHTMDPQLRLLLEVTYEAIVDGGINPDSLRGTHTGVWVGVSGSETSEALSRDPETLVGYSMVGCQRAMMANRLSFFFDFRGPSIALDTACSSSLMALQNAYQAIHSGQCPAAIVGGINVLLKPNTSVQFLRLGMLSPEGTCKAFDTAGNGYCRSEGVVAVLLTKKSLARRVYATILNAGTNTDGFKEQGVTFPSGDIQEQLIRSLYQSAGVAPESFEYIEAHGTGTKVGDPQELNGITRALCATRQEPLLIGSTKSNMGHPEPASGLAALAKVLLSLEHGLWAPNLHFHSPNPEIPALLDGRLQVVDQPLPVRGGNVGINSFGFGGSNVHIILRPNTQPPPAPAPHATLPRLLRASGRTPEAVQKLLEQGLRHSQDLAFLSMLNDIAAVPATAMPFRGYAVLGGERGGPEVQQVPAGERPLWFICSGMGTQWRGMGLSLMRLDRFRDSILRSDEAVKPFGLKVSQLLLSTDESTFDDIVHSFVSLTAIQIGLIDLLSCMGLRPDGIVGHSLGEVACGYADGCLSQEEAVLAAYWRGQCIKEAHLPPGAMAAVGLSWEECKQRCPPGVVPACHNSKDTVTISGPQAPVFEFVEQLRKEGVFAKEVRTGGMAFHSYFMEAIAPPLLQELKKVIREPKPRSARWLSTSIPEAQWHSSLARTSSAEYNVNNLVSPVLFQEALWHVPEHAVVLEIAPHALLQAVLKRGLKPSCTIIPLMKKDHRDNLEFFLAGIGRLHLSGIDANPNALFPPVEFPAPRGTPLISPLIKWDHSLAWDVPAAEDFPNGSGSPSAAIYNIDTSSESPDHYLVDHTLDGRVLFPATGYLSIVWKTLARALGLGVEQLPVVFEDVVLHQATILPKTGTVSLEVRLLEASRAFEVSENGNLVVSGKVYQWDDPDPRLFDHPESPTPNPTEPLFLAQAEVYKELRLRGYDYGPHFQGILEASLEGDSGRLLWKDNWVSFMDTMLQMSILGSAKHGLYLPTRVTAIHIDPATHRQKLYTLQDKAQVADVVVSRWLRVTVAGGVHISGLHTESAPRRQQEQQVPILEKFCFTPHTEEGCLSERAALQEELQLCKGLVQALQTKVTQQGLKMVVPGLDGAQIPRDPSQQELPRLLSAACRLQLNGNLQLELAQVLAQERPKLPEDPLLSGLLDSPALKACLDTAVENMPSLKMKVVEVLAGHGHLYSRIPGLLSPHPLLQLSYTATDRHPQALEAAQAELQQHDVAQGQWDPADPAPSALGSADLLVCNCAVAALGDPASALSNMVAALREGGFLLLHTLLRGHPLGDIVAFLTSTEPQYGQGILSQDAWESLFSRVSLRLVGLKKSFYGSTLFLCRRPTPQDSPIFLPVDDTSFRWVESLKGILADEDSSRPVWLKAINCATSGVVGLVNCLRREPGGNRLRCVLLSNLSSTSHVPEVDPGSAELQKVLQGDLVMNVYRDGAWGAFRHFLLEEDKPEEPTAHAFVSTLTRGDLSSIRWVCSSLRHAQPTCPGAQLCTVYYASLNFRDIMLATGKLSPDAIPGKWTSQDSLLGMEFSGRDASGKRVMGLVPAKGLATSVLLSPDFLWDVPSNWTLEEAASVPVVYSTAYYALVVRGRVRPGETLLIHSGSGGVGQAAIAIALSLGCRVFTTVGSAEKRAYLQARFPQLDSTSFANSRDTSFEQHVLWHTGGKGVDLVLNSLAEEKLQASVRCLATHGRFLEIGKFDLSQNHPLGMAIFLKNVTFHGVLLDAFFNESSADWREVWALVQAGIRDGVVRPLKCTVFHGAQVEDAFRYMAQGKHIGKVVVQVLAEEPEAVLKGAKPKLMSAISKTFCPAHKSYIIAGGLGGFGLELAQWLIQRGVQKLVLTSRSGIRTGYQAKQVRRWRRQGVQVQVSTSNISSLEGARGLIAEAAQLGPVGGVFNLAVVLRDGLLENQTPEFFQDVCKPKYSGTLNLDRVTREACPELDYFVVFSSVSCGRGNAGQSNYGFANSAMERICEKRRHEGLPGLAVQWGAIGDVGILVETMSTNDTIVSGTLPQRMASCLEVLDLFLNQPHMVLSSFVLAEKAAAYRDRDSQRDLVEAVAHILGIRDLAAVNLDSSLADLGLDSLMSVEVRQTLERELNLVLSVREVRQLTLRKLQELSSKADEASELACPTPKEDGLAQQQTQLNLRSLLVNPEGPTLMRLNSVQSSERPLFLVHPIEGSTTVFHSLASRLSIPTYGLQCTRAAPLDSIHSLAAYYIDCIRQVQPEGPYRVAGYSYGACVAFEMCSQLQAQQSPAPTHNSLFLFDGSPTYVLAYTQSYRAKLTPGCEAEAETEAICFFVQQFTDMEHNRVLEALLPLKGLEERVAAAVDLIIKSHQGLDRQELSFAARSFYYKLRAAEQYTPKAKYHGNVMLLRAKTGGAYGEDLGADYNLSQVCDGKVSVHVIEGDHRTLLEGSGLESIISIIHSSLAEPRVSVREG
Briefly: Fatty Acid Synthase (FASN) inhibition scintillation proximity assay. It is filed as biochemical. The settings on record: for inhibition at 10 µM: read-out: Human FASN % inhibition @ 10 μM, 10 μM test compound; for IC50: read-out: Human FASN pIC50 (converted). The method in brief:
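Proximity read-out: hydrophobic ^3H-palmitate formed from ^3H-acetyl-CoA and malonyl-CoA binds streptavidin imaging beads, imaged at 610±20 nm at least 24 h after stopping. Enzyme was in-house purified full-length hFASN, 300 ng, in pH 7.5 phosphate/DTT buffer; compound series 30 μM down to 0.01 μM, normalized to controls, 4-parameter fit.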
(SPA uses beads or plates that emit light when radiolabelled molecules are held near them.)

Assay [3] has as its system A2780 ovarian cells. The assay can be described thus: A2780 ovarian cell proliferation assay in lipid reduced medium, with palmitate (MTT). It is filed as cell-based. The note with it: Homo sapiens, A2780, 96 h; read-out: pIC50 A2780 Ovarian Cell, With Palmitate (converted). The essentials: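 In this palmitate-supplemented format, compound dilutions (30 μM down to 0.01 μM) are added to cells in lipid-reduced serum with 25 μM palmitate, 0.2% fatty-acid-free BSA and 0.25% ethanol. After four days (96 h) MTT absorbance at 544 nm is recorded and fitted by minimum sum of squares.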

The subject of assay [4] is LNCaP-Vancouver prostate cells. The assay can be described thus: In vitro LNCaP Vancouver prostate cell proliferation assay in lipid reduced medium. It is filed as cell-based. The note with it: read-out: pIC50 LNCaP_Vancouver prostate cell (converted).
Assay [5] has as its target Fatty Acid Synthase Keto-reductase Domain (FASN KR) (Homo sapiens, UniProt P49327). The assay can be described thus: Fatty Acid Synthase keto-reductase domain (FASN KR) inhibition, NADPH oxidation at 340 nm.
Protocol: After 20 minutes incubation at room temperature the plate was measured again (T2).
The decrease in absorbance was calculated as (Absorbance before incubation T1)−(Absorbance following incubation T2).
A plot of Controlmin versus test compound concentration was fitted to a 4-parameter logistic curve using a non-linear least squares regression method.

Chain of Fatty Acid Synthase Keto-reductase Domain (FASN KR) (P49327 whole entry, the tested form may be a part): as the sequence (P49327 whole entry) above

Take `Cc1cc(-c2cccc(SC3CC3)c2)ccc1C1=NC2(CC2)C(=O)N1C[C@@H]1CCN(C(=O)C2CC2)C1` [compound 642, 6-{[(3R)-1-(Cyclopropylcarbonyl)pyrrolidin-3-yl]methyl}-5-[3′-(cyclopropylsulfanyl)-3-methylbiphenyl-4-yl]-4,6-diazaspiro[2.4]hept-4-en-7-one]: the IC50 is about 3800 nM in the assay on A2780 ovarian cells [1]; 219 nM in assay [2]; over 10000 nM in the assay on A2780 ovarian cells [3]; 6170 nM in assay [4]; 776 nM in assay [5]. For the same compound, the inhibition at 10 µM in assay [2] came out at 99%.
On to `Cn1cc2cc(-c3ccc(C4=NC5(CC5)C(=O)N4CC4CN(C(=O)C5CC5)C4)c(F)c3)ccc2n1` [compound 644, 6-{[1-(Cyclopropylcarbonyl)azetidin-3-yl]methyl}-5-[2-fluoro-4-(2-methyl-2H-indazol-5-yl)phenyl]-4,6-diazaspiro[2.4]hept-4-en-7-one], for which the IC50 is 162 nM with A2780 ovarian cells [1]; 178 nM in assay [2]; over 10000 nM in the assay on A2780 ovarian cells [3]; 2820 nM in assay [4]; 1450 nM in assay [5]. The inhibition at 10 µM in assay [2] was 97%.
With `N#Cc1ccc2sc(-c3ccc(C4=NC5(CC5)C(=O)N4CC4CN(C(=O)C5CC5)C4)c(F)c3)nc2c1` [compound 652, 2-[4-(6-{[1-(Cyclopropylcarbonyl)azetidin-3-yl]methyl}-7-oxo-4,6-diazaspiro[2.4]hept-4-en-5-yl)-3-fluorophenyl]-1,3-benzothiazole-5-carbonitrile], the IC50 with A2780 ovarian cells [1] is 174 nM; in assay [2] it was 186 nM; in the assay on A2780 ovarian cells [3] it was over 6170 nM; in assay [4], 1200 nM; in assay [5], 347 nM. The inhibition at 10 µM in assay [2] was determined as 97%.
As to `O=C(C1CC1)N1CC[C@@H](CN2C(=O)C3(CCOCC3)N=C2c2ccc(-c3ccc4occc4c3)cc2)C1` [compound 667, 2-[4-(1-Benzofuran-5-yl)phenyl]-3-{[(3R)-1-(cyclopropylcarbonyl)pyrrolidin-3-yl]methyl}-8-oxa-1,3-diazaspiro[4.5]dec-1-en-4-one], the IC50 in the assay on A2780 ovarian cells [1] was about 1000 nM; in assay [2], 155 nM; in the assay on A2780 ovarian cells [3] it was over 10000 nM; in assay [4], 1780 nM; in assay [5], 339 nM. The inhibition at 10 µM in assay [2] was determined as 97%.
For `O=C([C@H]1CCCO1)N1CC(CN2C(=O)C3(CCOC3)N=C2c2ccc(-c3ccc4cccnc4c3)cc2)C1` (stereo partly drawn) [compound 716, 2-(4-Quinolin-7-ylphenyl)-3-({1-[(2R)-tetrahydro-furan-2-ylcarbonyl]azetidin-3-yl}methyl)-7-oxa-1,3-diazaspiro[4.4]non-1-en-4-one], the IC50 in the assay on A2780 ovarian cells [1] is 513 nM; in assay [2], 398 nM; in the assay on A2780 ovarian cells [3], over 10000 nM; in assay [4], 5500 nM; in assay [5], 1050 nM. For the same compound, the inhibition at 10 µM in assay [2] came out at 88%.
Take `CC(C)N1CCC2(CC1)N=C(c1ccc(-c3ccc4[nH]ccc4c3)cc1)N(C[C@@H]1CCN(C(=O)C3CC3)C1)C2=O` [compound 744, 3-{[(3R)-1-(Cyclopropylcarbonyl)pyrrolidin-3-yl]methyl}-2-[4-(1H-indol-5-yl)phenyl]-8-(1-methylethyl)-1,3,8-triazaspiro[4.5]dec-1-en-4-one]: the IC50 with A2780 ovarian cells [1] is about 214 nM; in assay [2], 115 nM; with A2780 ovarian cells [3], over 10000 nM; in assay [4] it was 851 nM; in assay [5], 251 nM. Also, the inhibition at 10 µM in assay [2] was determined as 98%.
With `CS(=O)(=O)N1CCC2(CC1)N=C(c1ccc(-c3ccc4[nH]ccc4c3)cc1)N(C[C@@H]1CCN(C(=O)C3CC3)C1)C2=O` [compound 745, 3-{[(3R)-1-(Cyclopropylcarbonyl)pyrrolidin-3-yl]methyl}-2-[4-(1H-indol-5-yl)phenyl]-8-(methylsulfonyl)-1,3,8-triazaspiro[4.5]dec-1-en-4-one], the IC50 in the assay on A2780 ovarian cells [1] was 95.5 nM; in assay [2] it was 70.8 nM; with A2780 ovarian cells [3] it was over 10000 nM; in assay [4], 851 nM; in assay [5] it was 158 nM. The inhibition at 10 µM in assay [2] was 104%.

For the origin of these results see patent US10077261B2, “Imidazolin-5-one derivative useful as FASN inhibitors for the treatment of cancer” (Janssen Pharmaceutica NV, priority 2012, dated 2018).
